This passage reports IC50 results from patent EP4667458A1 (Kanaph Therapeutics Inc., priority 2023, dated 2024).

Experiment [1] has as its target T1, SOS1 (Homo sapiens, UniProt Q07889).
T1 construct: adding equal amounts of HIS-SOS1cat (160 nM; Cytoskeleton, US); His; purchased Cytoskeleton, US
T1 sequence (Q07889 564-1049 limits assumed): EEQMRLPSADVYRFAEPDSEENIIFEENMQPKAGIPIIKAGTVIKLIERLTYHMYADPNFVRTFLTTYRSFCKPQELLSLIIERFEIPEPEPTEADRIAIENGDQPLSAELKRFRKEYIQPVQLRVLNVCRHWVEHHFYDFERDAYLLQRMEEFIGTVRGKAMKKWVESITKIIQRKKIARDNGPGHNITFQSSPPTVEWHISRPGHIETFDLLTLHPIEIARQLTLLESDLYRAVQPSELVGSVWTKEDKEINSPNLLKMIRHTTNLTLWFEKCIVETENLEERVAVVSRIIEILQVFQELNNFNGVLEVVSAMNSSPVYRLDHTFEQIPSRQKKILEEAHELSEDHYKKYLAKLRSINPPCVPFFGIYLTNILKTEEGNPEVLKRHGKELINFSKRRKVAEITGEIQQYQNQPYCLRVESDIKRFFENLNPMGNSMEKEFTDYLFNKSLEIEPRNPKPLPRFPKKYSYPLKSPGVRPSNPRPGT
Nature of the experiment: SOS-catalyzed nucleotide exchange assay (HTRF, SOS1-mediated GTP loading of KRAS G12D). To be noted: GST-KRAS G12D, HIS-SOS1cat, EDA-GTP-DY-647P1; compound 128 pM to 10 µM; read-out: SOS-catalyzed nucleotide exchange assay (IC50 range, Grade). The experiment is classed as biochemical. Put shortly: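 SOS1cat (HIS-tagged) preincubated 10 min at room temperature with compound (128 pM-10 µM), then GST-KRAS G12D with anti-GST terbium added; GTP loading tracked as HTRF with a DY-647P1 GTP analogue after 30 min, buffer HEPES pH 7.4. GEF-free wells for normalization; IC50 derived.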
(In general: TR-FRET usually uses a lanthanide donor and a delayed reading to cut background.)

The target of experiment [2] is T2, KRAS^G12C::SOS1 (Homo sapiens, UniProt Q07889).
T2 sequence (Q07889 1-1333): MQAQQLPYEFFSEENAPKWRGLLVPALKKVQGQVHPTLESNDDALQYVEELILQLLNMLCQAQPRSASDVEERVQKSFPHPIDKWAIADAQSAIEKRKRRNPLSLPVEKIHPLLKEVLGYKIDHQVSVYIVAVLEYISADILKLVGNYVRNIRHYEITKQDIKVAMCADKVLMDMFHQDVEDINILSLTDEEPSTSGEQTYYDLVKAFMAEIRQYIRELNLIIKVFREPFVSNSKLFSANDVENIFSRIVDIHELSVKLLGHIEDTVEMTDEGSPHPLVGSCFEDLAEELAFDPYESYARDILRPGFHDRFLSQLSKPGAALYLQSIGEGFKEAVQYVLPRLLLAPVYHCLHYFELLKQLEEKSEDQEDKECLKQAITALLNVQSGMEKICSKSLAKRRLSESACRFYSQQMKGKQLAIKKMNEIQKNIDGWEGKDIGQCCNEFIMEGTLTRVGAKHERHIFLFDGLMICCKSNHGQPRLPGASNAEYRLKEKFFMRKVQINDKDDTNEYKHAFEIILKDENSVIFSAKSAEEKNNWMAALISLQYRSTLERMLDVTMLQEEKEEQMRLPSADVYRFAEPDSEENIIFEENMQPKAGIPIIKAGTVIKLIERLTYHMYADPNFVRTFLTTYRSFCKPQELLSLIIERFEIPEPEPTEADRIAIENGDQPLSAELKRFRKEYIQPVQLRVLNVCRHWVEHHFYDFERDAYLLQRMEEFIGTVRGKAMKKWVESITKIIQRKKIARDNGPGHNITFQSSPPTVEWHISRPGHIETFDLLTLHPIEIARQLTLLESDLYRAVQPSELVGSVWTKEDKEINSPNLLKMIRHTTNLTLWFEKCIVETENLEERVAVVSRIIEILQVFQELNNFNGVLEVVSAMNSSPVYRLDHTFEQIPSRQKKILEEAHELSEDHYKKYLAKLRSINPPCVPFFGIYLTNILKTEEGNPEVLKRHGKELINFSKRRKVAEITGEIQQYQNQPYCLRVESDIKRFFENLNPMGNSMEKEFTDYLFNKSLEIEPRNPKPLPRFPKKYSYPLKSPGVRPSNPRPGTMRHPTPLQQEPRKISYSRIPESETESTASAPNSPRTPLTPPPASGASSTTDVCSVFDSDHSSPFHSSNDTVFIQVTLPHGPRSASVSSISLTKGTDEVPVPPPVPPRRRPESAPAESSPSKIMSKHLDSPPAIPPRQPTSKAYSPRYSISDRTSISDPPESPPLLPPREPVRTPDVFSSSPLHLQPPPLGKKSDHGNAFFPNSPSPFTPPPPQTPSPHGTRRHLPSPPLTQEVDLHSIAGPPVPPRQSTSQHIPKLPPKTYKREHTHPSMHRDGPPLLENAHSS
In words: KRAS G12C::SOS1 protein-protein interaction (PPI) inhibition assay (HTRF binding kit).

Some results are limits rather than exact numbers.

The term IC50 denotes the concentration needed to halve the response being measured. In the case of `C[C@@H](NC(=O)c1ccc(=O)n(C2CCS(=O)(=O)CC2)n1)c1cc(N)cc(C(F)(F)F)c1` [Example 117, N-[(1R)-1-[3-amino-5-(trifluoromethyl)phenyl]ethyl]-1-(1,1-dioxo-1λ^6-thian-4-yl)-6-oxo-1,6-dihydropyridazine-3-carboxamide], the IC50 in experiment [1] was in the range of 1000 to 10000 nM.

Turning to `C[C@@H](NC(=O)c1ccc(=O)n(C2C[C@@H]3CC[C@H]2C3)n1)c1cc(N)cc(C(F)(F)F)c1` (stereo partly drawn) [Example 119, N-[(1R)-1-[3-amino-5-(trifluoromethyl)phenyl]ethyl]-1-[(1S,4R)-bicyclo[2.2.1]heptan-2-yl]-6-oxo-1,6-dihydropyridazine-3-carboxamide], in experiment [1], the IC50 was above 10000 nM.

In the case of `C[C@@H](NC(=O)c1ccc(=O)n(C2CCN(S(C)(=O)=O)CC2)n1)c1cc(N)cc(C(F)(F)F)c1` [Example 120, N-[(1R)-1-[3-amino-5-(trifluoromethyl)phenyl]ethyl]-1-(1-methanesulfonylpiperidin-4-yl)-6-oxo-1,6-dihydropyridazine-3-carboxamide], the 50% inhibitory concentration (IC50) in experiment [1] lay within 1000 to 10000 nM.

With `C[C@@H](NC(=O)c1ccc(=O)n([C@@H]2CCCC[C@H]2O)n1)c1cc(N)cc(C(F)(F)F)c1` [Example 124, N-((R)-1-(3-amino-5-(trifluoromethyl)phenyl)ethyl)-1-((1R,2R)-2-hydroxycyclohexyl)-6-oxo-1,6-dihydropyridazine-3-carboxamide], in experiment [1], the half-inhibitory concentration (IC50) lay in the range of 1000 to 10000 nM.

Turning to `C[C@@H](NC(=O)c1ccc(=O)n([C@H]2CCCC[C@@H]2O)n1)c1cc(N)cc(C(F)(F)F)c1` [Example 125, N-((R)-1-(3-amino-5-(trifluoromethyl)phenyl)ethyl)-1-((1S,2S)-2-hydroxycyclohexyl)-6-oxo-1,6-dihydropyridazine-3-carboxamide], the 50% inhibitory concentration (IC50) in experiment [1] fell in the range of 1000 to 10000 nM.

For `C[C@@H](NC(=O)c1ccc(=O)n(C2=CCN(C)CC2)n1)c1cc(N)cc(C(F)(F)F)c1` [Example 126, N-[(1R)-1-[3-amino-5-(trifluoromethyl)phenyl]ethyl]-1-(1-methyl-1,2,3,6-tetrahydropyridin-4-yl)-6-oxo-1,6-dihydropyridazine-3-carboxamide], in experiment [1], the IC50 was below 1000 nM.

With `COC1CC=C(n2nc(C(=O)N[C@H](C)c3cc(N)cc(C(F)(F)F)c3)ccc2=O)CC1` (stereo partly drawn) [Example 127, N-[(1R)-1-[3-amino-5-(trifluoromethyl)phenyl]ethyl]-1-(4-methoxycyclohex-1-en-1-yl)-6-oxo-1,6-dihydropyridazine-3-carboxamide], the IC50 in experiment [1] lay in the range of 1000 to 10000 nM.

In the case of `C[C@@H](NC(=O)c1ccc(=O)n(C2=CCOCC2)n1)c1cc(N)cc(C(F)(F)F)c1` [Example 128, N-[(1R)-1-[3-amino-5-(trifluoromethyl)phenyl]ethyl]-1-(3,6-dihydro-2H-pyran-4-yl)-6-oxo-1,6-dihydropyridazine-3-carboxamide], the IC50 in experiment [1] is below 1000 nM.

Consider `CC(=O)Nc1cccc(-n2cc(C(=O)N[C@H](C)c3cc(N)cc(C(F)(F)F)c3)ccc2=O)c1` [Example 129, N-[(1R)-1-[3-amino-5-(trifluoromethyl)phenyl]ethyl]-1-(3-acetamidophenyl)-6-oxo-1,6-dihydropyridine-3-carboxamide], for which, in experiment [1], the IC50 was below 1000 nM.

For `C[C@@H](NC(=O)c1ccc(=O)n(-c2cccc(NC(=O)C3CC3)c2)c1)c1cc(N)cc(C(F)(F)F)c1` [Example 130, N-[(1R)-1-[3-amino-5-(trifluoromethyl)phenyl]ethyl]-1-(3-cyclopropaneamidophenyl)-6-oxo-1,6-dihydropyridine-3-carboxamide], the IC50 in experiment [1] was below 1000 nM.

As for `CNCc1ccc(Cl)cc1-c1cnc([C@@H](C)NC(=O)c2ccc(=O)n(-c3ccccc3F)n2)s1` [Example 137, N-[(1R)-1-[5-[5-chloro-2-(methylaminomethyl)phenyl]thiazol-2-yl]ethyl]-1-(2-fluorophenyl)-6-oxo-pyridazine-3-carboxamide], in experiment [1], the IC50 was below 1000 nM.

As to `CNCc1ccc(Cl)cc1-c1cnc([C@@H](C)NC(=O)c2ccc(=O)n(-c3ccccc3F)c2)s1` [Example 138, N-[(1R)-1-[5-[5-chloro-2-(methylaminomethyl)phenyl]thiazol-2-yl]ethyl]-1-(2-fluorophenyl)-6-oxo-pyridine-3-carboxamide], the IC50 in experiment [1] is below 1000 nM.

As for `COc1ccc(-n2cc(C(=O)N[C@H](C)c3cccc(C(F)(F)CO)c3F)ccc2=O)c(F)c1OC` [Example 140, N-[(1R)-1-[3-(1,1-difluoro-2-hydroxy-ethyl)-2-fluoro-phenyl]ethyl]-1-(2-fluoro-3,4-dimethoxy-phenyl)-6-oxo-pyridine-3-carboxamide], the IC50 in experiment [1] and in experiment [2] was below 1000 nM in each case.

In the case of `C[C@@H](NC(=O)c1ccc(=O)n(-c2cccnc2F)n1)c1cccc(C(F)(F)CO)c1F` [Example 141, N-[(1R)-1-[3-(1,1-difluoro-2-hydroxy-ethyl)-2-fluorophenyl]ethyl]-1-(2-fluoro-3-pyridyl)-6-oxo-pyridazine-3-carboxamide], the IC50 in experiment [1] and in experiment [2] was below 1000 nM throughout.

With `CC(C)Oc1ccc(-n2nc(C(=O)N[C@H](C)c3cc(N)cc(C(F)(F)F)c3)ccc2=O)cc1` [Example 142, N-[(1R)-1-[3-amino-5-(trifluoromethyl)phenyl]ethyl]-1-(4-isopropoxyphenyl)-6-oxo-pyridazine-3-carboxamide], the IC50 in experiment [1] and in experiment [2] was below 1000 nM in each case.

For the molecule `C[C@@H](NC(=O)c1ccc(=O)n(-c2ccccc2OC(F)F)n1)c1cccc(C(F)(F)CO)c1F` [Example 143, N-[(1R)-1-[3-(1,1-difluoro-2-hydroxy-ethyl)-2-fluoro-phenyl]ethyl]-1-[2-(difluoromethoxy)phenyl]-6-oxo-pyridazine-3-carboxamide], the IC50 in experiment [1] and in experiment [2] was below 1000 nM in each case.

As for `C[C@@H](NC(=O)c1ccc(=O)n(-c2ccccc2F)n1)c1cccc(I)c1F` [Example 144, N-[(1R)-1-(2-fluoro-3-iodo-phenyl)ethyl]-1-(2-fluorophenyl)-6-oxo-pyridazine-3-carboxamide], the IC50 in experiment [1] is 1000 to 10000 nM; in experiment [2] it was below 1000 nM.

In the case of `C[C@@H](NC(=O)c1ccc(=O)n(-c2cccnc2F)c1)c1cc(N)cc(C(F)(F)F)c1` [Example 148, N-[(1R)-1-[3-amino-5-(trifluoromethyl)phenyl]ethyl]-1-(2-fluoro-3-pyridyl)-6-oxo-pyridine-3-carboxamide], the IC50 in experiment [1] and in experiment [2] was above 10000 nM each time.

As for `C[C@@H](NC(=O)c1ccc(=O)n(-c2cccc(-c3ccnn3C(F)F)c2)n1)c1cc(N)cc(C(F)(F)F)c1` [Example 149, N-[(1R)-1-[3-amino-5-(trifluoromethyl)phenyl]ethyl]-1-[3-[2-(difluoromethyl)pyrazol-3-yl]phenyl]-6-oxo-pyridazine-3-carboxamide], the IC50 in experiment [1] and in experiment [2] was below 1000 nM each time.

On to “(R)-1-([1,1'-biphenyl]-4-yl)-N-(1-(3-amino-5-(trifluoromethyl)phenyl)ethyl)-6-oxo-1,6-dihydropyridazine-3-carboxamide [Example 24]”, for which the IC50 in experiment [1] is 1000 to 10000 nM.
